Usually IC50 stands for the concentration needed to halve the response being measured.

Bounds are passed on as bounds.

One data set relates to Ames test strain TA98. Briefly: Ames test, TA98.
The subject of a further data set is Ames test strain TA1535. Description: Ames test, TA1535.
The subject of the next data set is Ames test strain TA100. Briefly: Ames test, TA100. A general note: In the Ames test, an excess of revertant colonies over the control signals mutagenicity.
For a further data set, the system named is Mia PaCa-2. Description: Pancreatic cancer cell viability, Mia PaCa-2. The class given is cell-based. The note with it: Homo sapiens, MIA PaCa2, read-out: IC50. How it is done:
(§1) The activity of the withanolides of this invention were tested in pancreatic cancer cells. […] Moreover, IC50 values were determined for these compounds (Table 14).

The subject of data set [1] is heat shock factor (HSF) / HSE-luciferase in Hs766T cells. Description: HSE-luciferase reporter, Hs766T. The data set is classed as cell-based. Set-up: dose or concentration left out as unconfirmed. Particulars: heat shock 42° C. 30 minutes; recovery 8 hours. As for the experimental part:
To monitor the activation of heat shock factor (HSF) and heat shock-mediated signal transduction pathways, Hs766T cells were transfected with a HSE-luciferase construct, then treated with 3 mM of the selected withanolides for 8 hours. The cells were heat shocked at 42° C. for 30 minutes and allowed to recover at 37° C. for 8 hours. Cells were lysed and luciferase activity was measured on a plate reader.

The subject of a further data set is HS766T. Briefly: Pancreatic cancer cell viability, HS766T. Particulars: read-out: IC50. The data set is classed as cell-based. As for the experimental part:
as §1

Data set [2] relates to squamous cell carcinoma of head and neck cells MDA1986. Briefly: MTS cell viability assay, MDA1986. The class given is cell-based. The note with it: Table 5. As for the experimental part:
(§2) Human carcinoid cells, NCI-H727 (ATCC, Manassas, Va.), were cultured under standard conditions. Squamous cell carcinoma of head and neck cells, MDA1986 (Myers, et al. (2002) Clin. Cancer Res. 8:293) and JMAR (Swan, et al. (2003) Oral Oncol. 39:648-55); and melanoma cells lines B16F10 (ATCC, Manassas, Va.) and SKMEL28 (CLS, Eppelheim, Germany) were cultured in DMEM medium supplemented with 10% heat-inactivated fetal bovine serum (Sigma-Aldrich, St. Louis, Mo.), 1×MEM-essential amino acid, 1×MEM vitamin, and penicillin/streptomycin (Sigma-Aldrich, St. Louis, Mo.) in a humid environment of 5% CO2 at 37° C. Activity of withanolides against DRO81-1 and TT medullary thyroid cancer cells was also determined.
(§3) Cells were cultured in 96 well plates at a concentration of 1-2×10^4 cells/mL. Cell viability was assessed with the nonradioactive cell proliferation MTS assay using Cell Titer 96AQUEOUS One Solution Reagent (PROMEGA, Madison, Wis.), according to the manufacturer's instruction. After a 72-hour treatment, 20 μL of Cell Titer 96AQUEOUS One Solution Reagent were added to each well and incubated for 3 hours at 37° C. 5% CO2, and formazan absorbance was measured at 490 nm.
For orientation: Tetrazolium dyes change colour on reduction, which living cells bring about.

Another data set has as its system MRC-5. Description: MTS cell viability assay, MRC-5. The data set is classed as cell-based. Particulars: Homo sapiens, MRC5, Table 5.
For data set [3], the system named is squamous cell carcinoma of head and neck cells JMAR. Description: MTS cell viability assay, JMAR. The note with it: Table 5. The class given is cell-based. How it is done: as §2, §3
Data set [4] has as its system human melanoma SKMEL28 cells. Briefly: MTS cell viability assay, SKMEL28. The class given is cell-based. The note with it: Homo sapiens, SK-MEL-28, Table 5. As for the experimental part: as §2, §3
A cell viability MTS assay was carried out to determine the anti-cancer effect of the withanolides on human melanoma SKMEL28 cells. Cells were treated for 72 hours and cell viability was determined according to the manufacturer's instruction.

The test system of a further data set is melanoma cells B16F10. Briefly: MTS cell viability assay, B16F10. The class given is cell-based. Particulars: Mus musculus, B16-F10, Table 5. As for the experimental part:
as §2, §3

Data set [5] relates to RET, mTOR, 4E-BP1, P70S6 kinase, akt, pERK in medullary thyroid cancer cells. Description: Mechanistic pathway protein levels in medullary thyroid cancer cells. The data set is classed as cell-based. Particulars: for pERK / total and phosphorylated protein levels of RET, mTOR, 4E-BP1, P70S6 kinase: 24 hours, 0.25, 0.5, 1 or 3 μM. How it is done:
Additional analysis of X005, X032 and X033 was carried out in medullary thyroid cancer cells. […] Therefore, this analysis indicates the importance of this double bond in the A-ring to anti-cancer activity.

As to `CN(N=O)C(=O)N[C@H]1C(O)O[C@H](CO)[C@@H](O)[C@@H]1O` (mixture of isomers) [Streptoxotocin, reference compound], the “Positive Significance (− to +++)” value is reported as “−” in the data set with Ames test strain TA98 (2.5E−06 M, TA98 +S9); “−” in the data set with Ames test strain TA98 (2.5E−06 M, TA98 −S9); “++ (Strong positive, if p < 0.01, denoted as “++”.)” with Ames test strain TA1535 (2.5E−06 M, TA1535 +S9); “+++ (Very strong positive, if p < 0.001, denoted as “+++”.)” in the data set with Ames test strain TA1535 (2.5E−06 M, TA1535 −S9); “+++ (Very strong positive, if p < 0.001, denoted as “+++”.)” in the data set on Ames test strain TA100 (2.5E−06 M, TA100 +S9); “+++ (Very strong positive, if p < 0.001, denoted as “+++”.)” in the data set with Ames test strain TA100 (2.5E−06 M, TA100 −S9).
For the compound `CC1=C(C)C(=O)O[C@@H]([C@@H](C)[C@H]2CC[C@H]3[C@@H]4C[C@H]5O[C@]56[C@@H](O)C=CC(=O)[C@]6(CO)[C@H]4CC[C@]23C)C1` (stereo in doubt) [Compound X030], the half-maximal inhibitory concentration (IC50) with Mia PaCa-2 and with HS766T was 0.8 µM in each case. The “heat shock-induced increase in luciferase activity” value in [1] is recorded as “substantially reduced”.
Regarding `Nc1cccc2cc3ccccc3cc12` [Aminoanthracene, reference compound], the “Positive Significance (− to +++)” value is given as “+++ (Very strong positive, if p < 0.001, denoted as “+++”.)” with Ames test strain TA98 (1.0E−05 M, TA98 +S9); “−” in the data set on Ames test strain TA98 (1.0E−05 M, TA98 −S9); “+++ (Very strong positive, if p < 0.001, denoted as “+++”.)” with Ames test strain TA1535 (1.0E−05 M, TA1535 +S9); “−” in the data set on Ames test strain TA1535 (1.0E−05 M, TA1535 −S9); “+++ (Very strong positive, if p < 0.001, denoted as “+++”.)” with Ames test strain TA100 (1.0E−05 M, TA100 +S9); “−” with Ames test strain TA100 (1.0E−05 M, TA100 −S9).
Take `CC1=C(CO)C(=O)O[C@@H]([C@@H](C)[C@H]2CC[C@H]3[C@@H]4C[C@H]5O[C@]56[C@@H](O)C=CC(=O)[C@]6(C)[C@H]4[C@@H](O)C[C@]23C)C1` [Compound X004]: the IC50 turned out to be 1.3 µM in the data set on Mia PaCa-2; 2.64 µM in data set [2]; 3.6 µM in the data set with MRC-5; 1.6 µM with HS766T; 0.77 µM in data set [3]; 2.99 µM in [4]. Also, it took 0.49 µM to reach half-maximal inhibition with melanoma cells B16F10 (IC50).
As to `CO[C@H]1CC(=O)[C@]2(CO)[C@H]3CC[C@]4(C)[C@@H]([C@H](C)[C@H]5CC(C)=C(CO)C(=O)O5)CC[C@H]4[C@@H]3C[C@H]3O[C@]32[C@H]1O` [Compound X005], the IC50 in data set [2] was greater than 25 µM; with MRC-5, 6.5 µM; in data set [3] it was 4.69 µM; in data set [4], 9.27 µM; in the data set on melanoma cells B16F10, 3.21 µM. Moreover, the “RET, mTOR, 4E-BP1, p70S6 kinase and akt levels” value in data set [5] (medullary thyroid cancer cells) is listed as “dose-dependent increase”.
With `CC1=C(CO)C(=O)O[C@@H]([C@@H](C)[C@H]2CC[C@H]3[C@@H]4C[C@H]5O[C@]56[C@@H](O)[C@@H](OS(=O)(=O)O)CC(=O)[C@]6(CO)[C@H]4CC[C@]23C)C1` [Compound X017], the IC50 with Mia PaCa-2 stood at 1.4 µM; in data set [2], 2.02 µM; in the data set with MRC-5 it was 3.33 µM; in the data set on HS766T, 1.8 µM; in data set [3], 2.25 µM; in [4], 4.8 µM. Besides, the IC50 in the data set with melanoma cells B16F10 was 1.33 µM.
Turning to `CC(=O)O[C@H]1C=CC(=O)[C@]2(CO)[C@H]3CC[C@]4(C)[C@@H]([C@H](C)[C@H]5CC(C)=C(C)C(=O)O5)CC[C@H]4[C@@H]3C[C@H]3O[C@]132` [Compound X032], the half-maximal inhibitory concentration (IC50) was 0.49 µM in data set [2]; 0.16 µM with MRC-5; 0.12 µM in data set [3]; 0.64 µM in [4]; 0.19 µM in the data set with melanoma cells B16F10. For the same compound, the pERK result in [5] is “increased at higher concentrations”. In addition, the “total and phosphorylated protein levels of RET, mTOR, 4E-BP1, P70S6 kinase” value in data set [5] is listed as “dose-dependent down-regulation”. The “potency in pathway analysis relative to X001” value in [5] (medullary thyroid cancer cells) is “more potent than X001”.
Turning to `CC(=O)OC[C@]12C(=O)C=C[C@H](OC(C)=O)[C@]13O[C@@H]3C[C@H]1[C@@H]3CC[C@H]([C@H](C)[C@H]4CC(C)=C(C)C(=O)O4)[C@@]3(C)CC[C@@H]12` [Compound X033], the IC50 is 0.11 µM in [2]; 0.51 µM with MRC-5; 0.24 µM in data set [3]; 0.27 µM in data set [4]; 0.13 µM in the data set on melanoma cells B16F10. In addition, in data set [5], the pERK result was “increased at higher concentrations”. Moreover, the “total and phosphorylated protein levels of RET, mTOR, 4E-BP1, P70S6 kinase” value in data set [5] is recorded as “dose-dependent down-regulation”. Besides, the “potency in pathway analysis relative to X001” value in data set [5] (medullary thyroid cancer cells) is “more potent than X001”.
Regarding `CC1=C(COC(=O)c2ccc(Cl)cc2)C(=O)O[C@@H]([C@@H](C)[C@H]2CC[C@H]3[C@@H]4C[C@H]5O[C@]56[C@@H](OC(=O)c5ccc(Cl)cc5)C=CC(=O)[C@]6(CO)[C@H]4CC[C@]23C)C1` [HFM-JA-398B], the IC50 in data set [2] is greater than 25 µM; with MRC-5, 7.13 µM; in data set [3], 10.6 µM; in data set [4], greater than 25 µM; in the data set with melanoma cells B16F10, 10 µM.
`CC1=C(CO)C(=O)O[C@@H]([C@@H](C)[C@H]2CC[C@H]3[C@@H]4C[C@H]5O[C@]56[C@@H](OC(=O)c5ccc(Cl)cc5)C=CC(=O)[C@]6(CO)[C@H]4CC[C@]23C)C1` [HFM-JA-398H]: the IC50 in data set [2] was found to be 6.05 µM; with MRC-5, 5.29 µM; in data set [3] it was 2.61 µM; in [4], 3.45 µM; in the data set on melanoma cells B16F10, 2.35 µM.
For `CC(=O)OC[C@]12C(=O)C=C[C@H](OC(=O)c3ccc(Cl)cc3)[C@]13O[C@@H]3C[C@H]1[C@@H]3CC[C@H]([C@H](C)[C@H]4CC(C)=C(COC(=O)c5ccc(Cl)cc5)C(=O)O4)[C@@]3(C)CC[C@@H]12` [HFM-JA-400], the IC50 was greater than 25 µM in data set [2]; 10.8 µM in the data set with MRC-5; greater than 25 µM in data set [3]; greater than 25 µM in [4]; 9.04 µM with melanoma cells B16F10.
With `CC1=C(CO)C(=O)O[C@@H]([C@@H](C)[C@H]2CC[C@H]3[C@@H]4C[C@H]5O[C@]56[C@@H](OC(=O)N(C)C)C=CC(=O)[C@]6(CO)[C@H]4CC[C@]23C)C1` [HFM-JA-403], the IC50 in data set [2] worked out at 2.48 µM; in the data set on MRC-5, 0.69 µM; in data set [3], 0.55 µM; in data set [4], 2.31 µM; in the data set on melanoma cells B16F10, 0.28 µM.
In the case of `O=c1c(O)c(-c2ccc(O)c(O)c2)oc2cc(O)cc(O)c12` [Quercetin, reference compound], the “Positive Significance (− to +++)” value is given as “+++ (Very strong positive, if p < 0.001, denoted as “+++”.)” with Ames test strain TA98 (3.0E−05 M, TA98 +S9); “+++ (Very strong positive, if p < 0.001, denoted as “+++”.)” with Ames test strain TA98 (3.0E−05 M, TA98 −S9); “−” in the data set on Ames test strain TA1535 (3.0E−05 M, TA1535 +S9); “−” in the data set on Ames test strain TA1535 (3.0E−05 M, TA1535 −S9); “−” in the data set on Ames test strain TA100 (3.0E−05 M, TA100 +S9); “−” in the data set on Ames test strain TA100 (3.0E−05 M, TA100 −S9).

These data come from US8598339B2, “Withanolide isolated from Physalis longifolia and analogs and methods of use thereof” (University of Kansas, priority 2011, dated 2013).
